For assay [1], the system named is NCI-H3122. The experiment in a line: Effect on EML4-ALK expression in human NCI-H3122 cells upto 20 uM incubated for 72 hrs by immunoblot analysis. The assay is classed as functional, cell-based. A general note: In western blotting, separated proteins are transferred to a membrane and probed.
Assay [2] relates to NCI-H3122. Briefly: Inhibition of cell viability in human NCI-H3122 cells incubated for 48 to 72 hrs by CCK8 assay. In general terms: Tetrazolium assays rely on reduction of a dye to a coloured formazan, in cell work by metabolically active cells.
The next assay concerns NCI-H1975. The experiment in a line: Inhibition of cell viability in human NCI-H1975 cells incubated for 48 to 72 hrs by CCK8 assay.
The subject of assay [3] is Epidermal growth factor receptor (Homo sapiens), P00533 [L858R,T790M]. The experiment in a line: Induction of EGFR L858R/T790M mutant degradation in human NCI-H1975 cells harboring sgGID4 at 1 to 20 uM incubated for 24 hrs by immunoblot analysis. The assay is classed as cell-based. The following applies: dose 1-20 µM.
The test system is the same in assay [4]. Briefly: Inhibition of EGFR L858R/T790M mutant phosphorylation in human NCI-H1975 cells harboring sgGID4 at 1 to 20 uM incubated for 24 hrs by immunoblot analysis. The note with it: dose 1-20 µM. The assay is classed as cell-based.
Assay [5] concerns NCI-H3122. The experiment in a line: Inhibition of EML4-ALK phosphorylation in human NCI-H3122 cells at 2.5 uM incubated for 48 hrs followed by compound removal and incubation in drug-free medium for 12 to 72 hrs by immunoblot analysis. The assay is classed as cell-based.
Assay [6] relates to Glucose-induced degradation protein 4 homolog/Epidermal growth factor receptor (Homo sapiens), P00533+Q8IVV7 [L858R,T790M]. The experiment in a line: Inhibition of EGFR L858R/T790M mutant phosphorylation in human NCI-H1975 cells at 20 uM incubated for 72 hrs followed by compound removal and incubation in drug-free medium for 12 to 72 hrs by immunoblot analysis. The assay is classed as cell-based.

Assay [7] relates to UBR/Epidermal growth factor receptor (Homo sapiens), P00533+Q5T4S7+Q8IWV7+Q8IWV8 [L858R,T790M]. Briefly: PROTAC (AATac) activity at UBR1/2/4/EGFR L858R/T790M mutant in human NCI-H1975 cells assessed as protein degradation upto 20 uM incubated for 72 hrs by immunoblot analysis. The assay is classed as cell-based.
The subject of another assay is A549. The experiment in a line: Effect on wild-type EGFR expression in human A549 cells upto 20 uM incubated for 72 hrs by immunoblot analysis. The assay is classed as functional, cell-based.
The test system of another assay is NCI-H1299. The experiment in a line: Effect on wild-type EGFR expression in human NCI-H1299 cells upto 20 uM incubated for 72 hrs by immunoblot analysis. The assay is classed as functional, cell-based.
In another assay the test system is PC-9. The experiment in a line: Effect on EGFR del19 mutant expression in human PC-9 cells upto 20 uM incubated for 72 hrs by immunoblot analysis. The assay is classed as functional, cell-based.
For assay [8], the target named is T1, UBR/ALK tyrosine kinase receptor/Echinoderm microtubule-associated protein-like 4 (Homo sapiens) (UniProt Q9UM73+Q9HC35+Q5T4S7+Q8IWV7+Q8IWV8). The experiment in a line: PROTAC (AATac) activity at UBR1/2/4/EML4-ALK in human NCI-H3122 cells assessed as protein degradation upto 20 uM incubated for 72 hrs by immunoblot analysis. The assay is classed as cell-based.

The target in assay [9] is UBR/ALK tyrosine kinase receptor/Echinoderm microtubule-associated protein-like 4. The experiment in a line: PROTAC (AATac) activity at UBR1/2/4/EML4-ALK in human NCI-H3122 cells assessed as protein degradation incubated for 48 to 72 hrs by immunoblot analysis. The assay is classed as cell-based.
Assay [10] has as its target T1, UBR/ALK tyrosine kinase receptor/Echinoderm microtubule-associated protein-like 4 (Homo sapiens). Briefly: PROTAC (AATac) activity at UBR1/2/4/EML4-ALK in human NCI-H3122 cells assessed as protein degradation at 10 uM incubated for 48 to 72 hrs by immunoblot analysis relative to control. The assay is classed as cell-based. The note with it: time 48-72 hrs.
Assay [11] addresses UBR/Epidermal growth factor receptor (Homo sapiens, UniProt P00533+Q5T4S7+Q8IWV7+Q8IWV8, T790M/L858R). Briefly: PROTAC (AATac) activity at UBR1/2/4/EGFR L858R/T790M mutant in human NCI-H1975 cells assessed as protein degradation incubated for 48 to 72 hrs by immunoblot analysis. The assay is classed as cell-based.
Assay [12] concerns UBR/Epidermal growth factor receptor (Homo sapiens), P00533+Q5T4S7+Q8IWV7+Q8IWV8 [L858R,T790M]. Briefly: PROTAC (AATac) activity at UBR1/2/4/EGFR L858R/T790M mutant in human NCI-H1975 cells assessed as protein degradation at 20 uM incubated for 48 to 72 hrs by immunoblot analysis relative to control. The note with it: time 48-72 hrs. The assay is classed as cell-based.
Assay [13] has as its target T1, UBR/ALK tyrosine kinase receptor/Echinoderm microtubule-associated protein-like 4 (Homo sapiens). The experiment in a line: PROTAC (AATac) activity at UBR1/2/4/EML4-ALK in human NCI-H3122 cells assessed as protein degradation at 10 uM incubated for approximately 3 hrs by immunoblot analysis. The assay is classed as cell-based.
Assay [14] has as its system UBR/Epidermal growth factor receptor (Homo sapiens), P00533+Q5T4S7+Q8IWV7+Q8IWV8 [L858R,T790M]. Briefly: PROTAC (AATac) activity at UBR1/2/4/EGFR L858R/T790M mutant in human NCI-H1975 cells assessed as protein degradation at 20 uM incubated for 48 hrs by immunoblot analysis. The assay is classed as cell-based.
The test system of assay [15] is Protein zyg-11 homolog B/Protein zer-1 homolog/Epidermal growth factor receptor (Homo sapiens), P00533+Q9C0D3+Q7Z7L7 [L858R,T790M]. The experiment in a line: PROTAC (AATac) activity at ZYG11B/ZER1/EGFR L858R/T790M mutant in human NCI-H1975 cells assessed as protein degradation upto 20 uM incubated for 72 hrs by immunoblot analysis. The assay is classed as cell-based.

The target in assay [16] is T2, ZYG11B/ZER1/EML4-ALK (Homo sapiens, UniProt Q9UM73+Q9HC35+Q9C0D3+Q7Z7L7). Briefly: PROTAC (AATac) activity at ZYG11B/ZER1/EML4-ALK in human NCI-H3122 cells assessed as protein degradation upto 20 uM incubated for 72 hrs by immunoblot analysis. The assay is classed as cell-based.
Assay [17] addresses T2, ZYG11B/ZER1/EML4-ALK. Briefly: PROTAC (AATac) activity at ZYG11B/ZER1/EML4-ALK in human NCI-H3122 cells assessed as protein degradation incubated for 48 to 72 hrs by immunoblot analysis. The assay is classed as cell-based.
Assay [18] has as its target T2, ZYG11B/ZER1/EML4-ALK. The experiment in a line: PROTAC (AATac) activity at ZYG11B/ZER1/EML4-ALK in human NCI-H3122 cells assessed as protein degradation at 10 uM incubated for 48 to 72 hrs by immunoblot analysis relative to control. The assay is classed as cell-based. The note with it: time 48-72 hrs.
The target in assay [19] is Protein zyg-11 homolog B/Protein zer-1 homolog/Epidermal growth factor receptor (Homo sapiens, UniProt P00533+Q9C0D3+Q7Z7L7, T790M/L858R). The experiment in a line: PROTAC (AATac) activity at ZYG11B/ZER1/EGFR L858R/T790M mutant in human NCI-H1975 cells assessed as protein degradation incubated for 48 to 72 hrs by immunoblot analysis. The assay is classed as cell-based.

The subject of assay [20] is Protein zyg-11 homolog B/Protein zer-1 homolog/Epidermal growth factor receptor (Homo sapiens), P00533+Q9C0D3+Q7Z7L7 [L858R,T790M]. Briefly: PROTAC (AATac) activity at ZYG11B/ZER1/EGFR L858R/T790M mutant in human NCI-H1975 cells assessed as protein degradation at 20 uM incubated for 48 to 72 hrs by immunoblot analysis relative to control. The assay is classed as cell-based. The following applies: time 48-72 hrs.

In assay [21] the target is T2, ZYG11B/ZER1/EML4-ALK. The experiment in a line: PROTAC (AATac) activity at ZYG11B/ZER1/EML4-ALK in human NCI-H3122 cells assessed as protein degradation at 10 uM incubated for […] by immunoblot analysis. The assay is classed as cell-based.
Assay [22] deals with Protein zyg-11 homolog B/Protein zer-1 homolog/Epidermal growth factor receptor (Homo sapiens), P00533+Q9C0D3+Q7Z7L7 [L858R,T790M]. The experiment in a line: PROTAC (AATac) activity at ZYG11B/ZER1/EGFR L858R/T790M mutant in human NCI-H1975 cells assessed as protein degradation at 20 uM incubated for 24 hrs by immunoblot analysis. The assay is classed as cell-based.
Assay [23] addresses T2, ZYG11B/ZER1/EML4-ALK. The experiment in a line: PROTAC (AATac) activity at ZYG11B/ZER1/EML4-ALK in human NCI-H3122 cells harboring shZYG11B assessed as protein degradation incubated for 24 hrs by immunoblot analysis. The assay is classed as cell-based.
The subject of assay [24] is Protein zyg-11 homolog B/Protein zer-1 homolog/Epidermal growth factor receptor (Homo sapiens), P00533+Q9C0D3+Q7Z7L7 [L858R,T790M]. Briefly: PROTAC (AATac) activity at ZYG11B/ZER1/EGFR L858R/T790M mutant in human NCI-H1975 cells harboring shZYG11B assessed as protein degradation incubated for 72 hrs by immunoblot analysis. The assay is classed as cell-based.
Assay [25] deals with T2, ZYG11B/ZER1/EML4-ALK. The experiment in a line: PROTAC (AATac) activity at ZYG11B/ZER1/EML4-ALK in human NCI-H3122 cells harboring shZER1 assessed as protein degradation incubated for 24 hrs by immunoblot analysis. The assay is classed as cell-based.
Assay [26] relates to Protein zyg-11 homolog B/Protein zer-1 homolog/Epidermal growth factor receptor (Homo sapiens), P00533+Q9C0D3+Q7Z7L7 [L858R,T790M]. The experiment in a line: PROTAC (AATac) activity at ZYG11B/ZER1/EGFR L858R/T790M mutant in human NCI-H1975 cells harboring shZER1 assessed as protein degradation incubated for 72 hrs by immunoblot analysis. The assay is classed as cell-based.

In assay [27] the test system is NCI-H3122. Briefly: Antitumor activity against human NCI-H3122 cells xenografted in nude mouse assessed as reduction in ALK level at 10 mg/kg, ip measured after 24 hrs by immunoblot analysis. The assay is classed as functional, organism-based.

We go through four molecules from ChEMBL document CHEMBL5550219, “Distinct Amino Acid-Based PROTACs Target Oncogenic Kinases for Degradation in Non-Small Cell Lung Cancer (NSCLC)” (J Med Chem, 2024).

Activity calls are given as the source filed them. The calls are words filed in the database; no cut-off is given here.

Take `COc1cc(N2CCNCC2)ccc1Nc1ncc(Cl)c(Nc2ccccc2P(C)(C)=O)n1`: the result (in the assay on NCI-H3122 [1]; in assay [3]; in assay [4]) was inactive. Also, the IC50 in the assay on NCI-H3122 [2] worked out at 0.3 µM; in the assay on NCI-H1975 it was 0.88 µM. Moreover, the inhibition result (with NCI-H3122 [5]; in assay [6]) was “inactive” in each case.
Turning to `COc1cc(N2CCN(C(=O)CCOCCOCCOCCNC(=O)[C@@H](N)CCCCN)CC2)ccc1Nc1ncc(Cl)c(Nc2ccccc2P(C)(C)=O)n1`, the result in [7], in assay [8], in [13] and in assay [14] was Active. The result with A549, in the assay with NCI-H1299 and in the assay with PC-9 was inactive. Further, the 50% degradation concentration (DC50) stood at 1.32 µM in assay [9] and 19.7 µM in [11]. Also, the Emax in assay [10] came out at 91%. The Activity in assay [12] stood at 52%. For the same molecule, the IC50 with NCI-H3122 [2] was determined as 5.3 µM; with NCI-H1975 it was 18.6 µM.
Consider `COc1cc(N2CCN(C(=O)CCOCCOCCOCCNC(=O)CN)CC2)ccc1Nc1ncc(Cl)c(Nc2ccccc2P(C)(C)=O)n1`, for which the result (in assay [15]; at ZYG11B/ZER1/EML4-ALK [16]; at ZYG11B/ZER1/EML4-ALK [21]; in assay [22]; in the assay with NCI-H3122 [27]) was Active. For the same molecule, the result (with A549; with NCI-H1299; with PC-9; on ZYG11B/ZER1/EML4-ALK [23]; in [24]; at ZYG11B/ZER1/EML4-ALK [25]) was inactive. Further, the outcome in assay [26] was inactive. Moreover, the DC50 at ZYG11B/ZER1/EML4-ALK [17] was 0.5 µM; in assay [19] it was 20.1 µM. Besides, the Emax at ZYG11B/ZER1/EML4-ALK [18] stood at 98%. For the same molecule, the Activity in assay [20] came out at 43%. For the same molecule, the IC50 turned out to be 0.84 µM in the assay with NCI-H3122 [2] and 20.7 µM in the assay on NCI-H1975.
For `COc1cc(N2CCN(C(=O)CCOCCOCCOCCNC(=O)[C@@H](N)CCCN)CC2)ccc1Nc1ncc(Cl)c(Nc2ccccc2P(C)(C)=O)n1`, the result with NCI-H3122 [1] was inactive.

By IC50 is commonly meant the concentration that inhibits the measured activity by half. A lower IC50 goes with greater potency. By DC50 is commonly meant the concentration at which degradation of the target reaches its halfway point. The Emax is the size of the effect at its maximum, as opposed to the concentration needed.
